# Values of other authors, collected in patent publication US9655859B2, “Accordion pill comprising levodopa for an improved treatment of Parkinson's disease symptoms” (INTEC PHARMA LTD., priority 2010, dated 2017).
# Biological target: T1, peripheral DOPA decarboxylase (Homo sapiens, UniProt P20711)
# T1 construct: host or cells: endogenous enzyme of peripheral tissues in vivo
# T1 sequence (P20711 1-480): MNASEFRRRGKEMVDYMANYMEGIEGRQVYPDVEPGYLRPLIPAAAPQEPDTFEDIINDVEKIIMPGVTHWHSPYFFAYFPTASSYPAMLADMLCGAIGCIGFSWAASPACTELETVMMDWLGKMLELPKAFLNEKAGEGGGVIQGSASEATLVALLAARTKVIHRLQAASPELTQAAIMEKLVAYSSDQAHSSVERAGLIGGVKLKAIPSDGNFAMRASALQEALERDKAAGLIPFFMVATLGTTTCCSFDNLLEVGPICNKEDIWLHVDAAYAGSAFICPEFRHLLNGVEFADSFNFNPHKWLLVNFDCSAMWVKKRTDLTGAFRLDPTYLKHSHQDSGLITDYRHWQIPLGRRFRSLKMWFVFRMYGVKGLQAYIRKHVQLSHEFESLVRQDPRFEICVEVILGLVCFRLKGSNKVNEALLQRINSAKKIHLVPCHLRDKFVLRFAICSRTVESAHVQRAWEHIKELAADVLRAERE
# Settings: studies cited
smiles,measurement,value
C[C@@](Cc1ccc(O)c(O)c1)(NN)C(=O)O [carbidopa],carbidopa amount saturating peripheral DOPA decarboxylase,70 to 100 mg a day
